In patent US6787541B1, “Thieno-and furopyrimidine derivatives as A2A-receptor antagonists” (Vernalis Research Limited, priority 1999, dated 2004):
Where a name gives a salt, the structure may show the parent alone.

Target: T1, human adenosine A2A receptors expressed in HEK-293 cells (Homo sapiens, UniProt P29274)
T1 construct: expressed in transfected cells; host or cells: HEK-293 cells
Test: Binding affinities at hA2A receptors, displacement of [3H]-CGS 21680

T1 sequence (P29274 whole entry): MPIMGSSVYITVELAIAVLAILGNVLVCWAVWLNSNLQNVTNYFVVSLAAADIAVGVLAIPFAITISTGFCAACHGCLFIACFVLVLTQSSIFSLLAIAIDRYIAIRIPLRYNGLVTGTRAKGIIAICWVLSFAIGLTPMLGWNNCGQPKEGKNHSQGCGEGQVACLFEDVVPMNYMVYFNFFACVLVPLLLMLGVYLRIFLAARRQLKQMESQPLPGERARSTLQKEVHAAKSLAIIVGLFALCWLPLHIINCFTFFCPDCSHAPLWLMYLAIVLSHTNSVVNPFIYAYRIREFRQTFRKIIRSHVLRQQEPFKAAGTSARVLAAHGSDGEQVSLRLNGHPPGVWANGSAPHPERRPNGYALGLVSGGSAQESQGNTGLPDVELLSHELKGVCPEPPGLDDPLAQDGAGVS

In order of falling Ki:
1. α-(3-Thienyl-2-trifluoromethylthieno[3,2- d]pyrimidine-4-acetonitrile [Example 17]  895 nM
2. CN(C)CCNc1nc(C(=O)c2cccs2)c2sccc2n1 [Example 66, 2-(2-Dimethylaminoethylamino)thieno[3,2-d]pyrimidin-4-yl 2-thienylmethanone dihydrochloride]  218 nM
3. O=C(c1cccs1)c1nc(NCC(O)CO)nc2ccsc12 (racemic) [Example 93, (2RS)-2-(2,3-Dihydroxypropylamino)thieno[3,2-d]pyrimidin-4-yl 2-thienylmethanone]  7 nM
4. C[C@@H](CO)Nc1nc(C(=O)c2cccs2)c2sccc2n1 [Example 101, (2S)-2-(1-Hydroxy-2-propylamino)thieno[3,2-d]pyrimidin-4-yl 2-thienylmethanone]  7 nM
5. O=C(NCCNc1nc(C(=O)c2cccs2)c2sccc2n1)OCCCl [Example 158, 2-Chloroethyl (2-(4-(2-thienylcarbonyl)thieno[3,2-d]pyrimidin-2-yl)aminoethyl)carbamate]  6 nM
6. O=C(c1cccs1)c1nc(NCCc2cnc[nH]2)nc2ccsc12 [Example 144, 2-(2-(1H-Imidazol-4-yl)ethylamino)thieno[3,2-d]pyrimdin-4-yl 2-thienylmethanone]  5 nM
7. CC(C)CC(=O)NCCNc1nc(C(=O)c2cccs2)c2sccc2n1 [Example 150, 3-Methyl-N-(2-(4-(2-thienylcarbonyl)thieno[3,2-d]pyrimidin-2-yl)aminoethyl)butanamide]  4 nM

System: not given
Test: not given

Compared with `Cc1csc2c(C(=O)c3cccs3)nc(Cl)nc12` [Example 24, 2-Chloro-7-methylthieno[3,2-d]pyrimidin-4-yl 2-thienylmethanone], `Cc1csc2c(C(=O)c3cccs3)nc(N(C)C)nc12` [Example 38, 2-Dimethylamino-7-methylthieno[3,2-d]pyrimidin-4-yl 2-thienylmethanone] is lower in melting point: 188 to 190 °C for the first, 156 to 158 °C for the second.

Compared with `COC(=O)CNc1nc(C(=O)c2cccs2)c2sccc2n1` [Example 123, Methyl (4-(2-thienylcarbonyl)thieno[3,2-d]pyrimidin-2-ylamino)acetate], `NC(=O)CNc1nc(C(=O)c2cccs2)c2sccc2n1` [Example 125, (4-(2-Thienylcarbonyl)thieno[3,2-d]pyrimidin-2-ylamino)acetamide] is higher in melting point: 144.6 to 145.2 °C for the first, 232.1 to 233.7 °C for the second.

First: CCc1nc(C(O)c2cccs2)c2sccc2n1 (stereo not drawn) [Example 36, 2-Ethyl-α-(2-thienyl)thieno[3,2-d]pyrimidine-4-methanol]
Second: Cc1nc(C(O)c2cccs2)c2sccc2n1 (stereo not drawn) [Example 53, 2-Methyl-α-(2-thienyl)thieno[3,2-d]pyrimidine-4-methanol]
The melting point of the first is higher: 147 to 149 °C for the first, 144 to 146 °C for the second.

First: O=C(c1cccnc1)c1nc(NCCO)nc2ccsc12 [Example 106, 2-(2-Hydroxyethylamino)thieno[3,2-d]pyrimidin-4-yl 3-pyridylmethanone]
Second: CC(=O)NCCNc1nc(C(=O)c2cccs2)c2sccc2n1 [Example 90, N-(2-(4-(2-Thienylcarbonyl)thieno[3,2-d]pyrimidin-2-yl)aminoethyl)acetamide]
The melting point of the first is lower: 161 to 163 °C for the first, 212.2 to 212.5 °C for the second.

First: Cc1c(C(=O)c2nc(C(F)(F)F)nc3ccsc23)sc2ccccc12 [Example 62, 3-Methylbenzothiophene-2-yl 2-trifluoromethylthieno[3,2-d]pyrimidin-4-ylmethanone]
Second: Cc1cccc(C(=O)c2nc(C(F)(F)F)nc3ccsc23)c1 [Example 32, 3-Methylphenyl 2-trifluoromethylthieno[3,2-d]pyrimidin-4-ylmethanone]
The melting point of the first is higher: 262 to 263 °C for the first, 131 to 133 °C for the second.

First: Cc1ccc(C(=O)c2nc(C(F)(F)F)nc3ccsc23)s1
Second: O=C(c1ccc(Cl)cc1)c1nc(C(F)(F)F)nc2ccsc12 [Example 30, 4-Chlorophenyl 2-trifluoromethylthieno[3,2-d]pyrimidin-4-ylmethanone]
The melting point of the first is higher: 161 to 163 °C for the first, 127 to 128 °C for the second.

First: CN(C)c1nc(C(=O)c2ccco2)c2sccc2n1 [Example 105, 2-Dimethylaminothieno[3,2-d]pyrimidin-4-yl 2-furylmethanone]
Second: Cc1ccsc1C(=O)c1nc(N(C)C)nc2ccsc12 [Example 117, 2-Dimethylaminothieno[3,2-d]pyrimidin-4-yl 3-methyl-2-thienylmethanone]
The melting point of the first is higher: 210 to 212 °C for the first, 165.1 to 165.7 °C for the second.

Compared with `O=C(c1cc(Cl)cc(Cl)c1)c1nc(C(F)(F)F)nc2ccsc12` [Example 10, 3,5-Dichlorophenyl 2-trifluoromethylthieno[3,2-d]pyrimidin-4-ylmethanone], `O=C(c1cccc(Cl)c1)c1nc(C(F)(F)F)nc2ccsc12` [Example 9, 3-Chlorophenyl 2-trifluoromethylthieno[3,2-d]pyrimidin-4-ylmethanone] is lower in melting point: 147 to 149 °C for the first, 128 to 130 °C for the second.

First: C=CCNC(=O)NNc1nc(C(=O)c2cccs2)c2sccc2n1 [Example 131, N-Allyl-2-(4-(2-thienylcarbonyl)thieno[3,2-d]pyrimidin-2-yl)hydrazinecarboxamide]
Second: CC(=O)NNc1nc(C(=O)c2cccs2)c2sccc2n1 [Example 130, Acetic acid 2-(4-(2-thienylcarbonyl)thieno[3,2-d]pyrimidin-2-yl)hydrazide]
The melting point of the first is lower: 252.8 to 253.3 °C for the first, 258.3 to 259 °C for the second.

First: COc1ccc(C(=O)c2nc(C(F)(F)F)nc3ccsc23)cc1 [Example 27, 4-Methoxyphenyl 2-trifluoromethylthieno[3,2-d]pyrimidin-4-ylmethanone]
Second: O=C(c1ccc([N+](=O)[O-])cc1)c1nc(C(F)(F)F)nc2ccsc12 [Example 31, 4-Nitrophenyl 2-trifluoromethylthieno[3,2-d]pyrimidin-4-ylmethanone]
The melting point of the first is lower: 155 to 157 °C for the first, 185 to 186 °C for the second.

Compared with `Cc1ccsc1C(=O)c1nc(N2CCC[C@@H]2CO)nc2ccsc12` [Example 129, (2R)-2-(2-Hydroxymethylpyrrolidin-1-yl)thieno[3,2-d]pyrimidin-4-yl 3-methyl-2-thienylmethanone], `COC(=O)[C@@H]1CCCN1c1nc(C(=O)c2cccs2)c2sccc2n1` [Example 115, (2S)-N-(4-(2-Thienylcarbonyl)thieno[3,2-d]pyrimidin-2-yl)proline methyl ester] is higher in melting point: 96.2 to 96.9 °C for the first, 155.9 to 156.3 °C for the second.

First: OC(c1cccs1)c1nc(C(F)(F)F)nc2ccsc12 (stereo not drawn) [Example 41, α-(2-Thienyl)-2-trifluoromethylthieno[3,2-d]pyrimidine-4-methanol]
Second: O=C(c1cc2ccccc2o1)c1nc(C(F)(F)F)nc2ccsc12 [Example 15, 2-Benzofuranyl 2-trifluoromethylthieno[3,2-d]pyrimidin-4-ylmethanone]
The melting point of the first is lower: 157 to 158 °C for the first, 221 to 223 °C for the second.

Compared with `O=C(c1cccs1)c1nc(N2CCCC2)nc2ccsc12` [Example 109, 2-(Pyrrolidin-1-yl)thieno[3,2-d]pyrimidin-4-yl 2-thienylmethanone], `COC(=O)c1nc(C(=O)c2cccs2)c2sccc2n1` [Example 126, Methyl 4-(2-thienylcarbonyl)thieno[3,2-d]pyrimidin-2-carboxylate] is higher in melting point: 229.1 to 229.4 °C for the first, 232.8 to 233 °C for the second.

First: CN(CCN)c1nc(C(=O)c2cccs2)c2sccc2n1 [Example 120, 2-(N-(2-Aminoethyl)-N-methylamino)thieno[3,2-d]pyrimidin-4-yl 2-thienylmethanone]
Second: CN(C)C(=O)c1nc(C(=O)c2cccs2)c2sccc2n1 [Example 136, N,N-Dimethyl-4-(2-thienylcarbonyl)thieno[3,2-d]pyrimidin-2-carboxamide]
The melting point of the first is lower: 151.6 to 152.4 °C for the first, 173.1 to 174 °C for the second.

Compared with `CN(C)CCNC(=O)c1nc(C(=O)c2cccs2)c2sccc2n1` [Example 134, N-(2-Dimethylaminoethyl)-4-(2-thienylcarbonyl)thieno[3,2-d]pyrimidin-2-carboxamide], `CN(C)CC(=O)Nc1nc(C(=O)c2cccs2)c2sccc2n1` (as salt: hydrochloride) [Example 169, 2-Dimethylamino-N-(4-(2-thienylcarbonyl)thieno[3,2-d]pyrimidin-2-yl)acetamide hydrochloride] is higher in melting point: 143.6 to 144.7 °C for the first, 151 °C for the second.

First: Cc1ccsc1C(=O)c1nc(NCCCn2ccnc2)nc2ccsc12 [Example 132, 2-(3-(1H-imidazol-1-yl)propylamino)thieno[3,2-d]pyrimidin-4-yl 3-methyl-2-thienylmethanone]
Second: CS(=O)(=O)NNc1nc(C(=O)c2cccs2)c2sccc2n1 [Example 128, Methanesulphonic acid 2-(4-(2-thienylcarbonyl)thieno[3,2-d]pyrimidin-2-yl)hydrazide]
The melting point of the first is lower: 138.1 to 138.7 °C for the first, 242.1 to 242.7 °C for the second.

First: CCOC(=O)c1nc(C(=O)c2cccs2)c2sccc2n1 [Example 122, Ethyl 4-(2-thienylcarbonyl)thieno[3,2-d]pyrimidin-2-carboxylate]
Second: CC(C)(CO)Nc1nc(C(=O)c2cccs2)c2sccc2n1 [Example 119, 2-(1-Hydroxy-2-methyl-2-propylamino)thieno[3,2-d]pyrimidin-4-yl 2-thienylmethanone]
The melting point of the first is higher: 185.7 to 186.2 °C for the first, 126.4 to 127.1 °C for the second.

In the case of `O=C(c1cccs1)c1nc(NCc2ccco2)nc2ccsc12` [Example 96, 2-(2-Furylmethylamino)thieno[3,2-d]primidin-4-yl 2-thienylmethanone], the melting point is reported as > 140 °C (dec.).
With `O=C(c1cccs1)c1nc(N2CCC[C@@H]2C(=O)O)nc2ccsc12` [Example 121, (2R)-N-(4-(2-Thienylcarbonyl)thieno[3,2-d]pyrimidin-2-yl)proline] the melting point was > 131 °C (dec.).
In the case of `NCCNc1nc(C(=O)c2cccs2)c2sccc2n1` (as salt: hydrochloride) [Example 55, 2-(2-Aminoethylamino)thieno[3,2-d]pyrimidin-4-yl 2-thienylmethanone dihydrochloride], the melting point is reported as > 190 °C (dec.).
In the case of `CN(C)CCNc1nc(C(=O)c2cccs2)c2sccc2n1` (as salt: hydrochloride) [Example 66, 2-(2-Dimethylaminoethylamino)thieno[3,2-d]pyrimidin-4-yl 2-thienylmethanone dihydrochloride], the melting point is reported as > 150 °C (dec.).
